The nature of assay [1]: Tested for inhibition against CD23 (IgE receptor) proteolysis in membranes derived from RPM18866 cells (a human B-cell line).
In assay [2] the target is T1, Low affinity immunoglobulin epsilon Fc receptor (Homo sapiens, UniProt P06734).
T1 sequence (P06734 whole entry): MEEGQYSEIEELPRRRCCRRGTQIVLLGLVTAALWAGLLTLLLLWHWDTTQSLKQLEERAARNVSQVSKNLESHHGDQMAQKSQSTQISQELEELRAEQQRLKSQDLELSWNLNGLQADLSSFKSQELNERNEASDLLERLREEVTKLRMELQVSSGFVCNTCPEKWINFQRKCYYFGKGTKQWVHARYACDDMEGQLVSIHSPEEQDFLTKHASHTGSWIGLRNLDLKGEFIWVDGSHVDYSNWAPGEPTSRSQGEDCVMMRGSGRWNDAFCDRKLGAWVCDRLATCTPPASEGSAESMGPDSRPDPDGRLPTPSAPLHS
Kind of assay: ChEBML_41676. The source says:
(§1) Tested for inhibition against CD23 (IgE receptor) proteolysis in membranes derived from RPM18866 cells ( a human B-cell line); value ranges from 5-10

Assay [3] has as its target T1, Low affinity immunoglobulin epsilon Fc receptor. The description is as §1.

Take `O=C(C[C@@H](O)C(=O)N[C@@H](Cc1ccccc1)C(=O)NCc1ccccc1)NO` [(R)-N*1*-((S)-1-Benzylcarbamoyl-2-phenyl-ethyl)-2,N*4*-dihydroxy-succinamide]: in assay [1], the IC50 is over 20 µM.
Turning to `CC(C)S[C@H](CC(=O)NO)C(=O)N[C@@H](Cc1ccccc1)C(=O)NCc1ccccc1` [(R)-N*1*-((S)-1-Benzylcarbamoyl-2-phenyl-ethyl)-N*4*-hydroxy-2-isopropylsulfanyl-succinamide], the half-inhibitory concentration (IC50) in assay [1] was 8 µM. In other words, the single-digit micromolar range.
`CC(C)SC[C@H](CC(=O)NO)C(=O)N[C@@H](Cc1ccccc1)C(=O)NCc1ccccc1` [(R)-N*1*-((S)-1-Benzylcarbamoyl-2-phenyl-ethyl)-N*4*-hydroxy-2-isopropylsulfanylmethyl-succinamide] gave a half-inhibitory concentration (IC50) in assay [2] of 8 µM.
`O=C(C[C@@H](CCc1ccccc1)C(=O)N[C@@H](Cc1ccccc1)C(=O)NCc1ccccc1)NO` [(R)-N*1*-((S)-1-Benzylcarbamoyl-2-phenyl-ethyl)-N*4*-hydroxy-2-phenethyl-succinamide]: in assay [1], the half-maximal inhibitory concentration (IC50) came out at 5 µM.
Same read-out and setting: as for `O=C(C[C@@H](CC1CCCCC1)C(=O)N[C@@H](Cc1ccccc1)C(=O)NCc1ccccc1)NO` [(R)-N*1*-((S)-1-Benzylcarbamoyl-2-phenyl-ethyl)-2-cyclohexylmethyl-N*4*-hydroxy-succinamide], the figure is 3.7 µM.
On to `O=C(C[C@@H](Cc1ccc2ccccc2c1)C(=O)N[C@@H](Cc1ccccc1)C(=O)NCc1ccccc1)NO` [(R)-N*1*-((S)-1-Benzylcarbamoyl-2-phenyl-ethyl)-N*4*-hydroxy-2-naphthalen-2-ylmethyl-succinamide], for which the IC50 in assay [2] worked out at 1 µM.
In assay [1], `CN(C)C[C@H](CC(=O)NO)C(=O)N[C@@H](Cc1ccccc1)C(=O)NCc1ccccc1` [(S)-N*1*-((S)-1-Benzylcarbamoyl-2-phenyl-ethyl)-2-dimethylaminomethyl-N*4*-hydroxy-succinamide] showed an IC50 of over 20 µM.
Still for that read-out and setting: as for `C[C@H](CC(=O)NO)C(=O)N[C@@H](Cc1ccccc1)C(=O)NCc1ccccc1` [(R)-N*1*-((S)-1-Benzylcarbamoyl-2-phenyl-ethyl)-N*4*-hydroxy-2-methyl-succinamide], the figure is over 20 µM; as for `CC(C)C[C@@H](CC(=O)NO)C(=O)N[C@@H](Cc1ccccc1)C(=O)NCc1ccccc1` [(S)-N*1*-((S)-1-Benzylcarbamoyl-2-phenyl-ethyl)-N*4*-hydroxy-2-isobutyl-succinamide], over 20 µM; as for `O=C(C[C@H](C(=O)N[C@@H](Cc1ccccc1)C(=O)NCc1ccccc1)c1cccc2ccccc12)NO` [(S)-N*1*-((S)-1-Benzylcarbamoyl-2-phenyl-ethyl)-N*4*-hydroxy-2-naphthalen-1-yl-succinamide], over 20 µM.
Same read-out and setting: in the case of `O=C(C[C@@H](CC1CCCC1)C(=O)N[C@@H](Cc1ccccc1)C(=O)NCc1ccccc1)NO` [(R)-N*1*-((S)-1-Benzylcarbamoyl-2-phenyl-ethyl)-2-cyclopentylmethyl-N*4*-hydroxy-succinamide] it was 0.2 µM; in that of `O=C(C[C@H](C(=O)N[C@@H](Cc1ccccc1)C(=O)NCc1ccccc1)c1ccccc1)NO` [(S)-N*1*-((S)-1-Benzylcarbamoyl-2-phenyl-ethyl)-N*4*-hydroxy-2-phenyl-succinamide], 1.6 µM; in that of `O=C(C[C@H](C(=O)N[C@@H](Cc1ccccc1)C(=O)NCc1ccccc1)c1ccc(-c2ccccc2)cc1)NO` [(S)-N*1*-((S)-1-Benzylcarbamoyl-2-phenyl-ethyl)-2-biphenyl-4-yl-N*4*-hydroxy-succinamide], over 20 µM.
Still for that read-out and setting: as for `O=C(CCC(=O)N[C@@H](Cc1ccccc1)C(=O)NCc1ccccc1)NO` [N-((S)-1-Benzylcarbamoyl-2-phenyl-ethyl)-N'-hydroxy-succinamide], the figure is over 20 µM.
`O=C(C[C@H](C(=O)N[C@@H](Cc1ccccc1)C(=O)NCc1ccccc1)C1CCCCC1)NO` [(S)-N*1*-((S)-1-Benzylcarbamoyl-2-phenyl-ethyl)-2-cyclohexyl-N*4*-hydroxy-succinamide] returned an IC50 in assay [3] of 5 µM.
With `NC(=O)CC[C@H](CC(=O)NO)C(=O)N[C@@H](Cc1ccccc1)C(=O)NCc1ccccc1` [(R)-3-((S)-1-Benzylcarbamoyl-2-phenyl-ethylcarbamoyl)-hexanedioic acid 6-amide 1-hydroxyamide], the IC50 in assay [1] is over 20 µM.

By IC50 is commonly meant the midpoint of a concentration-inhibition curve. Read a low IC50 as inhibition by little substance.

(Values after BindingDB's records for doi:10.1016/s0960-894x(97)10148-2 (Smithkline Beecham Pharmaceuticals, 1999).)
